From US5840692A, “Peptide fragments and analogs of thrombospondin” (Allegheny University of the Health Sciences, priority 1995, dated 1998)
“And” between values parts separate entries of the source, which are not always exact repeats. Identical values can stand only once. Residues, ends and D or L forms follow the SMILES beside them.

Tests used:
[1] = tested on: Mouse B16 F10 melanoma cells; assay: Direct adhesion assay: melanoma cells adhering to ligand-coated wells; assay type: cell-based; conditions: for Adhesion as % Thrombospondin: absorbed compound 2 μg per well, B16 F10 melanoma cells, 1 hour at 37° C., cell protein by BCA, absorbance 562 nm; for adhesive properties (in words): melanoma cell adhesion to coated peptide
Method: (§1) It is believed that thrombospondin acts in metastasis through its adhesive properties. An assay was developed, generally in accordance with the disclosure of Tuszynski et al. (Anal. Bio. (1990) 184:189-91) which evaluates the ability of melanoma cells to adhere to the thrombospondin fragments or analogs of the invention. In this assay, wells of a 96-well microtiter dish (Costar, Cambridge, Mass.) were incubated for two to three hours with 50 μl of a 40 μg/ml solution of various ligands in 20 mM NaCl, pH 7.3. Thrombospondin (purified by the method of Tuszynski et al., J. Biol. Chem. (1985) 260:12240-5), fibronectin (Sigma Chemical Co., Missouri) served as the positive control. Bovine serum albumin (BSA) (Sigma Chemical Co.) served as the negative control. Thrombospondin analogs of the invention p1, p5 and p6 were synthesized as described in Examples 1 through 3. Following peptide adhesion to the microtiter dish, the wells were aspirated, treated with 200 μl phosphate buffered saline (PBS) containing 1% BSA for 1 hour and then washed three more times with 200 μl PBS.
(§2) Mouse B16 F10 melanoma cells were grown and harvested during log phase of growth using standard procedures. The harvested cells were washed two times in serum-free Dulbecco's minimum essential medium (DMEM) (Flow Laboratories) and suspended in DMEM at a final concentration of 4×10^5 cells/ml. Of the cell suspension 100 μl was added to each well of the microtiter dish containing the various ligands and the dish incubated at 37° C. in a CO2 incubator for 1 hour. Nonadherent cells were removed by aspiration and the wells washed three times with 200 μl of PBS. The total cell-associated protein was determined by dissolving the attached cells directly in the microtiter wells with 200 μl of the Pierce BCA working solution (Pierce Chem. Co. Booklet No. 23225 (1987)). The plate was covered with an adhesive mylar sheet (Flow Labs) and incubated at 60° C. for 30 minutes. Plates were allowed to cool to room temperature, cover sheets were removed, and the absorbance of each well was determined at 562 nm with a microtiter plate reader (Biotek, Burlington, Vt.)

[2] = tested on: melanoma cells (adhesion to absorbed intact thrombospondin); assay: Competitive assay to measure thrombospondin specific adhesion to melanoma cells; assay type: cell-based, mouse; conditions: for competition with thrombospondin for adhesion to melanoma cells (in words): at this concentration (100 μg/ml)
Method: as §1, §2
The direct adhesion assay of Example 5 was modified to measure the ability of the peptide compounds of the invention to compete with intact thrombospondin for adhesion to melanoma cells.
In this assay, intact thrombospondin is absorbed onto microtiter dishes as described in Example 5. […]

platelets = assay: Direct platelet adhesion assay; assay type: cell-based; conditions: for adherence to platelets (in words): at this concentration (40 μg/ml coating solution); for Adherence as % Control: wells treated with 50 μl of 40 μg/ml peptide or protein, platelets incubated 30 minutes, BCA protein assay
Method: (§3) The number of adherent platelets was essentially determined as previously described (Tuszynski et al., Anal. Bio. supra). Briefly, 100 μl of 5×10^8 platelets/ml washed as previously described (Tuszynski, et al., Blood 72, 109-225, 1988) were added to microtiter plates, the wells of which were treated with 50 μl of a 40 μg/ml peptide or protein solution (Hepes buffered saline, pH 7.4). Solutions were dried at room temperature after incubation in a fume hood for two hours. Wells were blocked for one hour with 1% BSA. Platelets (100 μl) were incubated in the wells for 30 minutes and non-adherent platelets were removed by aspiration. Wells were washed 3× with 200 μl of Hepes buffered saline, pH 7.4. The number of adherent platelets was determined by measuring the platelet-derived protein using the BCA protein assay.

[3] = tested on: platelets (adhesion to absorbed thrombospondin (TSP)); assay: Competitive assay, platelet adhesion to absorbed thrombospondin (TSP); assay type: cell-based; conditions: for % Buffer Control (platelet adhesion): absorbed protein TSP, platelets preincubated with 250 μg/ml compound
Method: as §3
(§4) The direct adhesion assay of Example 7 was modified to measure the ability of the peptide compounds of the invention to compete with intact thrombospindin or fibronectin for adhesion of platelets.
(§5) In this assay, thrombospondin (TSP) or fibronectin (FN) was absorbed onto microtiter dish as described in Example 7. The assay was similar to Example 7 except that before platelets were added to the microtiter dishes they were preincubated with 250 μg/ml of various ligands.

[4] = tested on: platelets (adhesion to absorbed fibronectin (FN)); assay: Competitive assay, platelet adhesion to absorbed fibronectin (FN); assay type: cell-based; conditions: for % Buffer Control (platelet adhesion): absorbed protein FN, platelets preincubated with 250 μg/ml compound
Method: as §3, §4, §5

[5] = tested on: platelets in platelet-rich-plasma (PRP); assay: Platelet aggregation assay in platelet-rich plasma, ADP-initiated; assay type: cell-based; conditions: 0.5 ml PRP, aggregation initiated with 1 μM ADP
Method: Platelet aggregation was monitored on a single-channel aggregometer equipped to measure luminescence (Chromo-Log, Havertown, Pa.). Platelet-rich-plasma (PRP) was obtained from whole blood anti-coagulated with 0.38% Sodium Citrate by centrifugation at 150×g for 20 minutes. Peptides were added to 0.5 ml of PRP and aggregation initiated with 1 μM ADP. Buffer blanks contained diluent (water) but no peptide.

[6] = tested on: B16 F10 mouse melanoma cells; assay: Antimetastatic activity in vivo, lung tumors after i.v. melanoma cells; parameters: species or system C57 black mice; conditions: for % buffer control (number of lung tumors): i.v. with 5×10^5 B16 F10 cells, lung tumors counted after 16 days; for number of tumors versus controls (in words) / size of lung tumors (in words): treated C57 black mice, 16 days
Text: Briefly, C57 black mice were intravenously injected with 5×10^5 B16 F10 mouse melanoma cells in the presence of either control buffer (Hepes buffered saline, pH 7.4), or the indicated amount of peptide compound of the invention p1, p5 or p6. After 16 days, the mice were sacrificed and the number of lung tumors counted.

[7] = cells preincubated with 10 μg/ml compound
[8] = cells preincubated with 50 μg/ml compound
[9] = cells preincubated 15 minutes with 100 μg/ml compound
[10] = cells preincubated with 200 μg/ml compound
[11] = cells preincubated with 300 μg/ml compound

## CC(C)[C@H](NC(=O)[C@H](CO)NC(=O)[C@H](CS)NC(=O)[C@@H]1CCCN1C(=O)[C@H](CO)NC(=O)[C@@H](N)Cc1c[nH]c2ccccc12)C(=O)N[C@H](C(=O)N[C@@H](CS)C(=O)NCC(=O)O)[C@@H](C)O [Compound p1, WSPCSVTCG] (H-WSPCSVTCG-OH)
[1]
  Adhesion as % Thrombospondin: 98%
  adhesive properties (in words): display adhesive properties
[2]
  competition with thrombospondin for adhesion to melanoma cells (in words): able to effectively compete with thrombospondin
[2]; [7]
  % of buffer control (melanoma cell adhesion to thrombospondin): 49%
[2]; [8]
  % of buffer control (melanoma cell adhesion to thrombospondin): 40%
platelets
  adherence to platelets (in words): adhere to platelets
[3]; 250 μg/ml
  competition with thrombospondin for platelet adhesion (in words): effectively competed with thrombospondin
[3]
  % Buffer Control (platelet adhesion): 71%
[4]; 250 μg/ml
  competition with fibronectin for platelet adhesion (in words): did not compete with fibronectin
[4]
  % Buffer Control (platelet adhesion): 108%
[5]
  inhibition of platelet aggregation (in words, FIG. 1): inhibit platelet aggregation
[6]; 30 μg/mouse
  % buffer control (number of lung tumors): 49%
[6]
  number of tumors versus controls (in words): statistically fewer tumors than controls
  size of lung tumors (in words): smaller in size

## Thrombospondin: large molecular weight 180 kD glycoprotein of three identical disulfide-linked polypeptide chains; purified intact protein, positive control
[1]
  Adhesion as % Thrombospondin: 100%
platelets
  Adherence as % Control: 100%

## fibronectin
platelets
  Adherence as % Control: 83%

## WSPCSVTCGNH2 [Compound p6]
[1]
  Adhesion as % Thrombospondin: 70%
  adhesive properties (in words): display adhesive properties
[2]
  competition with thrombospondin for adhesion to melanoma cells (in words): compete to a lesser degree
[2]; [9]
  % of buffer control (melanoma cell adhesion to thrombospondin): 89%
[2]; [10]
  % of buffer control (melanoma cell adhesion to thrombospondin): 74%
[2]; [11]
  % of buffer control (melanoma cell adhesion to thrombospondin): 74%
platelets
  adherence to platelets (in words): adhere to platelets
  Adherence as % Control: 38%
[3]
  % Buffer Control (platelet adhesion): 98%
[4]
  % Buffer Control (platelet adhesion): 96%
[5]
  inhibition of platelet aggregation (in words, FIG. 1): inhibit platelet aggregation
[6]; 30 μg/mouse
  % buffer control (number of lung tumors): 91%
[6]; 100 μg/mouse
  % buffer control (number of lung tumors): 102%
[6]; 300 μg/mouse
  % buffer control (number of lung tumors): 50%
[6]
  number of tumors versus controls (in words): statistically fewer tumors than controls
  size of lung tumors (in words): smaller in size

## fWSPCSVTCGNH2 [Compound p5]
[1]
  Adhesion as % Thrombospondin: 79%
  adhesive properties (in words): display adhesive properties
[2]
  competition with thrombospondin for adhesion to melanoma cells (in words): compete to a lesser degree
[2]; [9]
  % of buffer control (melanoma cell adhesion to thrombospondin): 62% and 108% and 83%
[2]; [7]
  % of buffer control (melanoma cell adhesion to thrombospondin): 99%
[2]; [8]
  % of buffer control (melanoma cell adhesion to thrombospondin): 104%
[2]; [10]
  % of buffer control (melanoma cell adhesion to thrombospondin): 89%
[2]; [11]
  % of buffer control (melanoma cell adhesion to thrombospondin): 83%
platelets
  Adherence as % Control: 2.1%
[3]
  % Buffer Control (platelet adhesion): 107%
[4]
  % Buffer Control (platelet adhesion): 109%
[5]
  inhibition of platelet aggregation (in words, FIG. 1): inhibit platelet aggregation
[6]; 30 μg/mouse
  % buffer control (number of lung tumors): 87%
[6]
  number of tumors versus controls (in words): statistically fewer tumors than controls
